The test system of one data set is Aedes aegypti mosquitoes. The experiment in a line: Knockdown studies in a 40 m^3 test chamber with paper dosed with metofluthrin. It is filed as in vivo. The procedure:
The inventors have carried out a number of knockdown studies for the control of mosquitoes using paper surfaces impregnated and/or dosed with the vapour active insecticide metofluthrin. The active was applied to each paper surface as a solution in acetone/ethanol (1:1).
Tests were carried out in a 40 m^3 test chamber. The temperature was approximately 28° C. Mixed sex Aedes aegypti mosquitoes were used, aged for 7-10 days after emergence. Up to 200 mosquitoes were introduced into the chamber for each test. Three replicates were done for each treatment. Knocked down mosquitoes were collected at the end of each assessment period and counted.
Knockdown studies against the Dengue mosquito Aedes aegypti using three surface areas a) A2, b) A3 and c) A4 of 18 gsm paper in the above test chamber were carried out. Each paper was treated with 150 mg of metofluthrin. A mosquito coil containing 0.04% Prallethrin was included as a reference control.
A knockdown study against the Dengue mosquito Aedes aegypti using aged paper was conducted. The test involved treating 18 gsm paper of A4 surface area with 2 mg of metofluthrin at 28° C. for up to 12 hours. The treated paper was hung in the centre of the above chamber. A mosquito coil containing 0.04% prallethrin was included in the trial as a reference control.

Data set [1] can be described thus: Emanation rate from 50 gsm A4 paper dosed with different amounts (Example 6). It is filed as physicochemical. The conditions noted are these: A4 50 gsm paper, dry dosing in acetone/ethanol (1:1), 25 mg to approximately 5 mg, 28° C., low air flow. The procedure: A study involving dosing 50 gsm paper with different amounts of metofluthrin was made to investigate the affect on the emanation rate from this substrate. Three samples of white (A4) paper (50 gsm) each having a surface area of 1250 cm^2 were dosed with metofluthrin (25, 20 and 14 mg) dissolved in acetone/ethanol (1:1) using the dry dosing technique. The papers were aged in a chamber at 28° C. with low air flow for up to a maximum of 214 hours. The amount of metofluthrin remaining on the paper substrate was measured from time 0 hours to 214 hours. The plot obtained for the emanation rate of metofluthrin from the 25 mg dosed samples was used to estimate the time it would take for 20 and 14 mg of metofluthrin to remain on the samples.

Data set [2] in a line: Emanation rate from 18 gsm paper honeycomb, wet dosed in Norpar 12 (Example 7). Format: physicochemical. The conditions noted are these: 30 mg on 18 gsm honeycomb, estimated surface area 2199 cm^2, wet dosed in Norpar 12, 28° C., low airflow. On the procedure: A study involving dosing 18 gsm paper configured into a honeycomb format with an estimated surface area of 2199 cm^2 with metofluthrin (30 mg) was made to determine the emanation rate from this substrate.
The metofluthrin was dissolved in Norpar 12 and dosed on to the substrate using the wet dosing technique. The papers were hung and aged in a chamber at 28° C. with low airflow for up to a maximum of 80 hours. The amount of metofluthrin remaining on the paper substrate was measured from time 0 hours to 80 hours. The plot obtained for the amount of metofluthrin remaining on samples as a function of time was used to calculate the release rate from this format.

Data set [3] is described as follows: Emanation rate from 30 gsm paper dosed with different solvents (Example 8). Format: physicochemical. The following applies: 14 mg on A4 30 gsm paper, 28° C. The procedure:
A study of the metofluthrin emanation rate from 30 gsm paper dosed with different solvents was made.
White (A4) paper (30 gsm) having a surface area of […] was dosed with metofluthrin (14 mg) prepared in a range of solvents, as listed below. The papers were aged in a chamber at 28° C. with low air flow for up to a maximum of 168 hours. The amount of metofluthrin remaining on the paper substrate was measured from time 0 hours to 168 hours. The following solvents were used:
The inventors have concluded that linear release kinetics are observed for metofluthrin emanating from paper substrates and accordingly, the line of best fit was fitted to obtain the linear equation to enable the rate of emanation to be determined.

The nature of data set [4]: Emanation rate from 18 gsm paper dosed with different solvents (Example 9). It is filed as physicochemical. The conditions noted are these: 14 mg on A4 18 gsm tissue paper, 28° C. On the procedure:
A study of the metofluthrin emanation rate from 18 gsm paper dosed with different solvents was made.
Tissue paper (18 gsm) having an effective surface area of 1250 cm^2 (A4) was dosed with metofluthrin (14 mg) prepared in a range of solvents. The papers were then aged in a chamber at 28° C. with low airflow for up to a maximum of 168 hours. The amount of metofluthrin remaining on the paper substrate was measured from time 0 hours to 168 hours. The following solvents were used:
The inventors have concluded that linear release kinetics are observed for metofluthrin emanating from paper substrates and accordingly, the line of best fit was fitted to obtain the linear equation to enable the rate of emanation to be determined: […]

Data set [5] in a line: Stability and packaging suitability, storage at 55° C. (Example 10). It is filed as physicochemical. The procedure: The stability and packaging suitability of various materials was studied. In these studies, metofluthrin (14 mg) was applied to A4 sized 30 gsm paper substrates via wet and dry application at ambient temperature. The samples were placed in pouches prepared from the packaging materials under investigation, sealed tightly and stored at 55° C. After periods of one and two weeks, samples were removed from storage and the dosed paper substrates were measured for metofluthrin content. The packaging materials studied were glass, PVC, amorphous PET (APET), crystalline PET (CPET), aluminium foil, heat sealable polyester films, acrylonitrile methyl acrylate copolymer and PEPET. For the wet dosing of metofluthrin on the paper substrate, the metofluthrin was dissolved in Exxsol D80 or Norpar 12 and the resulting solution applied to the substrate. For dry application, the metofluthrin was dissolved in acetone/ethanol (1:1 by volume) and applied to the substrate. The solvent was then allowed to evaporate over a period of 5-10 minutes.

For data set [6] the following is noted: cited from earlier work.

This is an account of results in patent US20080226685A1, “Product and Method for Controlling Flying Insects” (Reckitt Benckiser (Australia) Pty Limited, priority 2003, published 2008).

Where two headings read alike, the source gives them in different places.

As for `CC=CC1C(C(=O)OCc2c(F)c(F)c(COC)c(F)c2F)C1(C)C` (racemic) [metofluthrin, 2,3,5,6-tetrafluoro-4-(methoxymethyl)benzyl-(EZ)-(1RS,3RS;1RS,3SR)-2,2-dimethyl-3-(prop-1-enyl)cyclopropanecarboxylate], the knockdown result in the data set with Aedes aegypti mosquitoes (2 mg on A4 18 gsm paper aged at 28° C., for up to 4 hours, 40 m^3 chamber) was “greater than 40%”. Besides, in the data set on Aedes aegypti mosquitoes (2 mg on A4 18 gsm paper, at 4 hours of aging at 28° C.), the “effectiveness relative to control (mosquito coil 0.04% prallethrin)” value was “twice as effective as the control”. Further, in the data set with Aedes aegypti mosquitoes (A2, A3 and A4 18 gsm paper each treated with 150 mg, 40 m^3 chamber, approx. 28° C., control = mosquito coil containing 0.04% Prallethrin), the “knockdown effectiveness compared with reference control” value is “more effective than the control”. The “emanation rate when varying initial amount dosed” value in data set [1] is recorded as “constant”. Also, the emanation rate in data set [2] is 0.22 mg/h. Further, the “Release Rate Index” value was found to be 1.00 in data set [3] (solvent Acetone/ethanol (1:1), dry dosing (reference = 1)); 1.40 in data set [3] (solvent Exxsol D40, wet dosing, relative to acetone/ethanol); 1.41 in data set [3] (solvent Exxsol D80, wet dosing, relative to acetone/ethanol); 0.25 in data set [3] (solvent Exxsol D140, wet dosing, relative to acetone/ethanol); 1.37 in data set [3] (solvent HoTung C11-14, wet dosing, relative to acetone/ethanol); 1.58 in data set [3] (solvent Isopar G, wet dosing, relative to acetone/ethanol). For the same molecule, the “Release Rate Index” value in data set [4] (solvent Dowanol DPM, wet dosing, relative to acetone/ethanol) was 1.20; in data set [4] (solvent Dowanol TPM, wet dosing, relative to acetone/ethanol), 1.24; in data set [4] (solvent Isopar L, wet dosing, relative to acetone/ethanol), 1.75; in data set [4] (solvent Sasol C12-13, wet dosing, relative to acetone/ethanol), 1.63; in data set [4] (solvent acetone/ethanol (1:1), dry dosing (reference = 1)) it was 1.00; in data set [4] (solvent n-pentane, dry dosing, relative to acetone/ethanol), 1.50. Further, the “metofluthrin recovered from paper substrate (%)” value (“metofluthrin recovered … (%)” below) was 87% in data set [5] (packaging APET, dry dosing, acetone/ethanol (1:1), 1 week at 55° C.); 82% in data set [5] (packaging APET, dry dosing, acetone/ethanol (1:1), 2 weeks at 55° C.); 95% in data set [5] (packaging APET, wet dosing, Exxsol D80, 1 week at 55° C.); 100% in data set [5] (packaging APET, wet dosing, Exxsol D80, 2 weeks at 55° C.); 98% in data set [5] (packaging Acrylonitrile methyl acrylate copolymer, wet dosing, Norpar 12, 1 week at 55° C.); 99% in data set [5] (packaging Acrylonitrile methyl acrylate copolymer, wet dosing, Norpar 12, 2 weeks at 55° C.). Moreover, the “metofluthrin recovered … (%)” value is given as 99% in data set [5] (packaging Aluminium foil, dry dosing, acetone/ethanol (1:1), 1 week at 55° C.); 98% in data set [5] (packaging Aluminium foil, dry dosing, acetone/ethanol (1:1), 2 weeks at 55° C.); 99% in data set [5] (packaging Aluminium foil, wet dosing, Exxsol D80, 1 week at 55° C.); 100% in data set [5] (packaging Aluminium foil, wet dosing, Exxsol D80, 2 weeks at 55° C.); 98% in data set [5] (packaging CPET, dry dosing, acetone/ethanol (1:1), 1 week at 55° C.); 99% in data set [5] (packaging CPET, dry dosing, acetone/ethanol (1:1), 2 weeks at 55° C.). The “metofluthrin recovered … (%)” value in data set [5] (packaging CPET, wet dosing, Exxsol D80, 1 week at 55° C.) was 96%; in data set [5] (packaging CPET, wet dosing, Exxsol D80, 2 weeks at 55° C.) it was 100%; in data set [5] (packaging Glass (bottle), dry dosing, acetone/ethanol (1:1), 1 week at 55° C.) it was 90%; in data set [5] (packaging Glass (bottle), dry dosing, acetone/ethanol (1:1), 2 weeks at 55° C.), 81%; in data set [5] (packaging Glass (bottle), wet dosing, Exxsol D80, 1 week at 55° C.), 100%; in data set [5] (packaging Glass (bottle), wet dosing, Exxsol D80, 2 weeks at 55° C.), 98%. Also, the “metofluthrin recovered … (%)” value in data set [5] (packaging PEPET, wet dosing, Norpar 12, 1 week at 55° C.) worked out at 78%; in data set [5] (packaging PEPET, wet dosing, Norpar 12, 2 weeks at 55° C.), 77%; in data set [5] (packaging PVC, dry dosing, acetone/ethanol (1:1), 1 week at 55° C.), 64%; in data set [5] (packaging PVC, dry dosing, acetone/ethanol (1:1), 2 weeks at 55° C.), 46%; in data set [5] (packaging PVC, wet dosing, Exxsol D80, 1 week at 55° C.), 73%; in data set [5] (packaging PVC, wet dosing, Exxsol D80, 2 weeks at 55° C.) it was 44%. The “metofluthrin recovered … (%)” value in data set [5] (packaging heat sealable polyester films, dry dosing, acetone/ethanol (1:1), 2 weeks at 55° C.) stood at 92%; in data set [5] (packaging heat sealable polyester films, wet dosing, Exxsol D80, 2 weeks at 55° C.) it was 100%.

`CC1(C)[C@H](C=C(Cl)Cl)[C@H]1C(=O)OCc1c(F)c(F)c(F)c(F)c1F` [fenfluthrin]: the “vapour pressure (volatility at ambient temperature)” value (from here on “vapour pressure”) in data set [6] (20° C.) was 1 mPa.

With `Cc1c(F)c(F)c(COC(=O)[C@@H]2[C@H](/C=C(\Cl)C(F)(F)F)C2(C)C)c(F)c1F` (racemic) [tefluthrin], the results for the “vapour pressure” value in data set [6] (20° C.) and in data set [6] (40° C.) were 8.4 mPa and 50 mPa, respectively.

Take `C#CC(OC(=O)C1C(C=C(C)C)C1(C)C)/C(C)=C/CC` (centres unmarked) [empenthrin]: the “vapour pressure” value in data set [6] (23.6° C.) is listed as 14 mPa.
